Measured values: ChEMBL document CHEMBL5653597, “CI-1033, an irreversible pan-erbB receptor inhibitor and its potential application for the treatment of breast cancer” (Semin Oncol, 2003)
Where a name gives a salt, the structure may show the parent alone.

How the values were obtained:
Set-up in all cases: species or system Homo sapiens
[1] = Inhibition of purified PDGFR (unknown origin)
[2] = Inhibition of purified FGFR (unknown origin)
[3] = Inhibition of purified CDK2/Cyclin A (unknown origin)

Measured: IC50

C=CC(=O)Nc1cc2c(Nc3ccc(F)c(Cl)c3)ncnc2cc1OCCCN1CCOCC1 [CANERTINIB DIHYDROCHLORIDE]
> 50 µM: all assays above
